Legend:
human TLR7 = target: T1, human TLR7 (Homo sapiens, UniProt Q9NYK1); experiment: Human TLR7 Assay (SEAP reporter in HEK293 cells); format: cell-based; conditions: HEK293 cell line expressing human TLR7 and pNiFty2-SEAP reporter, overnight incubation at 37° C., 0.1% DMSO; read-out: hTLR7 EC50;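 also: Read-out is secreted alkaline phosphatase made under an NFkB/ELAM-1 composite promoter, reporting TLR7-triggered NFkB activation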
T1 construct: expressed in transfected cells; host or cells: HEK293 cell line stably expressing the pNiFty2-SEAP reporter plasmid; TLR7 in pUNO vector, blasticidin selection
T1 sequence (Q9NYK1 27-1049): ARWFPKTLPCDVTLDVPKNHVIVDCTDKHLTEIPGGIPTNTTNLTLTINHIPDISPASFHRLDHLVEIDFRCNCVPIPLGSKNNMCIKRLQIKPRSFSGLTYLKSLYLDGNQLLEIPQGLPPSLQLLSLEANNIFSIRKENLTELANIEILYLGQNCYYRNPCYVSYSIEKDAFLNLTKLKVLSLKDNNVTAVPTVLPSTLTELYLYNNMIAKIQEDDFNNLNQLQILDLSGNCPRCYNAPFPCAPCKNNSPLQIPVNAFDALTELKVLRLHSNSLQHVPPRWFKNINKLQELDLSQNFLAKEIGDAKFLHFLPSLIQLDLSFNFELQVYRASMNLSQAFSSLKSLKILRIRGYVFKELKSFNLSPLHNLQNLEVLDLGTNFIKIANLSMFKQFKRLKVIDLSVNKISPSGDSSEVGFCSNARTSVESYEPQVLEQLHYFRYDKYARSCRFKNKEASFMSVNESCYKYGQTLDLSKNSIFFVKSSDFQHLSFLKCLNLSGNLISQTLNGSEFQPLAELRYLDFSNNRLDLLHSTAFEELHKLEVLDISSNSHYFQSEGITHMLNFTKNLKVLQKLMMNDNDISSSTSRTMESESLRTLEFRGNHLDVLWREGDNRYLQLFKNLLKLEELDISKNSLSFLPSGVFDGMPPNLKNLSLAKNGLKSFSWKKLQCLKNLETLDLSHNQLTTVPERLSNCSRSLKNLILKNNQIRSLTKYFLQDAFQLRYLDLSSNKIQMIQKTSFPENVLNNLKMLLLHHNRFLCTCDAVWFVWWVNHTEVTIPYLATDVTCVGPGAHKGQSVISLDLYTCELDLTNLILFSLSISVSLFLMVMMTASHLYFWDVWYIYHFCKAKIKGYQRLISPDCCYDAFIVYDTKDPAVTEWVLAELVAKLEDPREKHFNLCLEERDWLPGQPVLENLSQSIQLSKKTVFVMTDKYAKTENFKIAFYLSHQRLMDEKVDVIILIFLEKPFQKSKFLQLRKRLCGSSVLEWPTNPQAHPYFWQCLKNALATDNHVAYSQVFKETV

Male Brown Norway rats = experiment: Antigen-induced pulmonary inflammation in a rat asthma model (eosinophils and Th2 cytokines in BALF); format: in vivo; conditions: BALF 48 hours after challenge
Procedure: Rats were sensitized and challenged to produce allergic airway inflammation in a similar manner to that described by Underwood et al (British Journal of Pharmacology 2002; 137: 263-275, 2002). Male Brown Norway rats were sensitized subcutaneously with ovalbumin (OVA) and aluminum hydroxide on day 0, and challenged with aerosolized OVA solution on day 14. The test compound was administered twice intratracheally 24 hours before and 24 hours after the OVA-challenge and bronchoalveolar lavage fluid (BALF) was collected 48 hours after the OVA-challenge. Then eosinophils and Th2 cytokines (IL-5 and IL-13) in the BALF were measured to evaluate efficacy of the test compounds of this invention.

[1] = 0.1 mg/kg intratracheally 24 hours before and 24 hours after OVA-challenge
[2] = 1.0 mg/kg intratracheally 24 hours before and 24 hours after OVA-challenge
[3] = 0.03 mg/kg intratracheally 24 hours before and 24 hours after OVA-challenge
[4] = 0.3 mg/kg intratracheally 24 hours before and 24 hours after OVA-challenge
[5] = 0.01 mg/kg intratracheally 24 hours before and 24 hours after OVA-challenge

Question: `CCN(CC)CC(=O)N(CCCn1c(CCOC)nc2c(N)nc3ccccc3c21)Cc1cccc(OCC(=O)OC(C)C)c1` [Example 27, Isopropyl 2-{3-[(N-{3-[4-amino-2-(2-methoxyethyl)-1H-imidazo[4,5-c]quinolin-1-yl]propyl}-2-(diethylamino)acetamido)methyl]phenoxy}acetate] was tested. Which EC50 (human TLR7) did it give?
Answer: The EC50 was 66.1 nM.

Question: What about the “Eosinophiles in BALF, inhibition (%) to OVA-Challenge control” value (“Eosinophiles in BALF, inhibition (%)” for short) (Male Brown Norway rats; [1]) of the same molecule?
Answer: Its value is 64%.

Question: What about the “IL-5 in BALF, inhibition (%) to OVA-Challenge control” value (“IL-5 in BALF, inhibition (%)” for short) (Male Brown Norway rats; [1]) of the same molecule?
Answer: The value was 41%.

Question: What about the “IL-13 in BALF, inhibition (%) to OVA-Challenge control” value (“IL-13 in BALF, inhibition (%)” for short) (Male Brown Norway rats; [1]) of the same molecule?
Answer: Its value is 72%.

Question: What about the “Eosinophiles in BALF, inhibition (%)” value (Male Brown Norway rats; [2]) of the same molecule?
Answer: The value was 89%.

Question: And the “IL-5 in BALF, inhibition (%)” value (Male Brown Norway rats; [2])?
Answer: The value was 90%.

Question: And the “IL-13 in BALF, inhibition (%)” value (Male Brown Norway rats; [2])?
Answer: Its value is 88%.

Question: What does the source list for `CCOCc1nc2c(N)nc3ccccc3c2n1CCCN(Cc1cccc(OC(C)(C)C(=O)OC)c1)C(=O)CN(CC)CC` [Example 163, Methyl 2-{3-[(N-{3-[4-amino-2-(ethoxymethyl)-1H-imidazo[4,5-c]quinolin-1-yl]propyl}-2-{diethylamino}acetamido)methyl]phenoxy}-2-methylpropanoate]?
Answer: EC50 (human TLR7): 174 nM; Eosinophiles in BALF, inhibition (%) to OVA-Challenge control (Male Brown Norway rats; [3]): 45%; IL-13 in BALF, inhibition (%) to OVA-Challenge control (Male Brown Norway rats; [3]): 50%; Eosinophiles in BALF, inhibition (%) to OVA-Challenge control (Male Brown Norway rats; [4]): 65%; IL-13 in BALF, inhibition (%) to OVA-Challenge control (Male Brown Norway rats; [4]): 80%

Question: Which EC50 (human TLR7) does the source give for `CCN(CC)CC(=O)N(CCCn1c(CCOC)nc2c(N)nc3ccccc3c21)Cc1cccc(OCC(=O)OC)c1` [Example 20, Methyl (3-{[[3-(4-amino-2-(2-methoxyethyl)-1H-imidazo[4,5-c]quinolin-1-yl)propyl](N,N-diethylglycyl)amino]methyl}phenoxy)acetate] here?
Answer: The EC50 was 31.7 nM.

Question: And the “Eosinophiles in BALF, inhibition (%)” value (Male Brown Norway rats; [5])?
Answer: The value was 14%.

Question: What about the “IL-5 in BALF, inhibition (%)” value (Male Brown Norway rats; [5]) of the same molecule?
Answer: Its value is “No effect”.

Question: And the “IL-13 in BALF, inhibition (%)” value (Male Brown Norway rats; [5])?
Answer: The value was “No effect”.

Question: What about the “Eosinophiles in BALF, inhibition (%)” value (Male Brown Norway rats; [1]) of the same molecule?
Answer: The value was 56%.

Question: And the “IL-5 in BALF, inhibition (%)” value (Male Brown Norway rats; [1])?
Answer: Its value is “No effect”.

Question: What about the “IL-13 in BALF, inhibition (%)” value (Male Brown Norway rats; [1]) of the same molecule?
Answer: Its value is 22%.

Question: With `CCOCc1nc2c(N)nc3ccccc3c2n1CCCN(Cc1cccc(OCC(=O)OC(C)C)c1)C(=O)CN(CC)CC` [Example 161, Isopropyl 2-{3-[(N-{3-[4-amino-2-(ethoxymethyl)-1H-imidazo[4,5-c]quinolin-1-yl]propyl}-2-{diethylamino}acetamido)methyl]phenoxy}acetate] as the molecule, how does the EC50 (human TLR7) read?
Answer: Its EC50 is 262 nM.

Question: And the “Eosinophiles in BALF, inhibition (%)” value (Male Brown Norway rats; [3])?
Answer: The value was 54%.

Question: What about the “IL-13 in BALF, inhibition (%)” value (Male Brown Norway rats; [3]) of the same molecule?
Answer: Its value is “No effect”.

Question: And the “Eosinophiles in BALF, inhibition (%)” value (Male Brown Norway rats; [4])?
Answer: Its value is 66%.

Question: And the “IL-13 in BALF, inhibition (%)” value (Male Brown Norway rats; [4])?
Answer: Its value is 64%.

Question: For `CCN(CC)CC(=O)N(CCCn1c(CCOC)nc2c(N)nc3ccccc3c21)Cc1cccc(OC(C)(C)C(=O)OC)c1` [Example 56, Methyl 2-{3-[(N-{3-[4-amino-2-(2-methoxyethyl)-1H-imidazo[4,5-c]quinolin-1-yl]propyl}-2-{diethylamino}acetamido)methyl]phenoxy}-2-methylpropanoate], which EC50 (human TLR7) is on record?
Answer: The EC50 was 33.1 nM.

Question: What about the “Eosinophiles in BALF, inhibition (%)” value (Male Brown Norway rats; [1]) of the same molecule?
Answer: The value was 78%.

Question: And the “IL-5 in BALF, inhibition (%)” value (Male Brown Norway rats; [1])?
Answer: Its value is 86%.

Question: And the “IL-13 in BALF, inhibition (%)” value (Male Brown Norway rats; [1])?
Answer: The value was 89%.

Question: What about the “Eosinophiles in BALF, inhibition (%)” value (Male Brown Norway rats; [2]) of the same molecule?
Answer: Its value is 94%.

Question: What about the “IL-5 in BALF, inhibition (%)” value (Male Brown Norway rats; [2]) of the same molecule?
Answer: The value was 99%.

Question: And the “IL-13 in BALF, inhibition (%)” value (Male Brown Norway rats; [2])?
Answer: The value was 98%.

Question: How did the EC50 (human TLR7) turn out when `CCN(CC)CC(=O)N(CCCn1c(CCOC)nc2c(N)nc3ccccc3c21)Cc1cccc(OCC(=O)OC(C)C)c1F` [Example 94, Isopropyl 2-{3-[(N-{3-[4-amino-2-(2-methoxyethyl)-1H-imidazo[4,5-c]quinolin-1-yl]propyl}-2-{diethylamino}acetamido)methy]-2-fluorophenoxy}acetate] was run?
Answer: Its EC50 is 27.9 nM.

Question: What about the “Eosinophiles in BALF, inhibition (%)” value (Male Brown Norway rats; [1]) of the same molecule?
Answer: Its value is 68%.

Question: And the “IL-5 in BALF, inhibition (%)” value (Male Brown Norway rats; [1])?
Answer: The value was 34%.

Question: What about the “IL-13 in BALF, inhibition (%)” value (Male Brown Norway rats; [1]) of the same molecule?
Answer: The value was 50%.

Question: And the “Eosinophiles in BALF, inhibition (%)” value (Male Brown Norway rats; [2])?
Answer: Its value is 91%.

Question: What about the “IL-5 in BALF, inhibition (%)” value (Male Brown Norway rats; [2]) of the same molecule?
Answer: The value was 90%.

Question: And the “IL-13 in BALF, inhibition (%)” value (Male Brown Norway rats; [2])?
Answer: The value was 82%.

Question: Which EC50 (human TLR7) does the source give for `CCN(CC)CC(=O)N(CCCn1c(CCOC)nc2c(N)nc3ccccc3c21)Cc1cccc(OCC(=O)OC2CCCC2)c1` [Example 80, Cyclopentyl 2-{3-[(N-{3-[4-amino-2-(2-methoxyethyl)-1H-imidazo[4,5-c]quinolin-1-yl]propyl}-2-{diethylamino}acetamido)methyl]phenoxy}acetate] here?
Answer: Its EC50 is 56.6 nM.

Question: What about the “Eosinophiles in BALF, inhibition (%)” value (Male Brown Norway rats; [1]) of the same molecule?
Answer: The value was 15%.

Question: And the “IL-5 in BALF, inhibition (%)” value (Male Brown Norway rats; [1])?
Answer: Its value is “No effect”.

Question: What about the “IL-13 in BALF, inhibition (%)” value (Male Brown Norway rats; [1]) of the same molecule?
Answer: The value was “No effect”.

Question: What about the “Eosinophiles in BALF, inhibition (%)” value (Male Brown Norway rats; [2]) of the same molecule?
Answer: Its value is 89%.

Question: What about the “IL-5 in BALF, inhibition (%)” value (Male Brown Norway rats; [2]) of the same molecule?
Answer: The value was 91%.

Question: What about the “IL-13 in BALF, inhibition (%)” value (Male Brown Norway rats; [2]) of the same molecule?
Answer: Its value is 83%.

Source: patent publication US20110136801A1, “Novel Compounds” (Dainippon Sumitomo Pharma Co. Ltd., priority 2009, published 2011)
